In PubChem BioAssay AID262 (DTP/NCI, 2004) one finds T/C data, which are given here for 25 compounds.

The test system of the experiment is LX-1 lung xenograft sc, nude mice, tumor weight. Put plainly: NCI In Vivo Anticancer Drug Screen. Data for tumor model Human Lung LX-1 Xenograft (subcutaneous) in NU/NU Swiss (nude) mice. As to conditions: endpoint: optimum tumor weight change, schedule: Q04DX003 (ip), higher = larger tumour. Here is the method:
The antitumor activity of compounds was measured in mice bearing transplantable tumors. Survival or tumor size were measured and the results are expressed as the measurement made in the treated group (T) divided by the measurement made in the vehicle treated control group (C). The tumor model used in this assay is Human Lung LX-1 Xenograft (subcutaneous) in NU/NU Swiss (nude) mice

[1] abbreviates: dose: 6.25 mg/kg/injection, vehicle: saline.
The mark [2] stands for this setting: dose: 12.5 mg/kg/injection, vehicle: saline.
The mark [3] stands for this setting: dose: 25.0 mg/kg/injection, vehicle: saline.
Where [4] appears, read: dose: 20.0 mg/kg/injection, vehicle: saline with Tween-80.
Setting [5] is: dose: 40.0 mg/kg/injection, vehicle: saline with Tween-80.
Setting [6] is: dose: 80.0 mg/kg/injection, vehicle: saline with Tween-80.
Setting [7] is: dose: 200.0 mg/kg/injection, vehicle: suspension in saline.
[8] abbreviates: dose: 25.0 mg/kg/injection, vehicle: Klucel (hydroxypropylcellulose) (HPC).
Setting [9] is: dose: 50.0 mg/kg/injection, vehicle: Klucel (hydroxypropylcellulose) (HPC).
Setting [10] is: dose: 50.0 mg/kg/injection, vehicle: saline.
Setting [11] is: dose: 5.0 mg/kg/injection, vehicle: Klucel (hydroxypropylcellulose) (HPC).
Where [12] appears, read: dose: 50.0 mg/kg/injection, vehicle: suspension in saline.
Where [13] appears, read: dose: 400.0 mg/kg/injection, vehicle: suspension in saline.
Setting [14] is: dose: 800.0 mg/kg/injection, vehicle: suspension in saline.
The mark [15] stands for this setting: dose: 100.0 mg/kg/injection, vehicle: saline with Tween-80.
Setting [16] is: dose: 200.0 mg/kg/injection, vehicle: saline with Tween-80.
[17] abbreviates: dose: 100.0 mg/kg/injection, vehicle: suspension in saline.

Values joined by “and” are separate entries in the source; they are usually repeats but may differ in a detail not shown here. Identical values can stand only once.

Take `C=C(C)[C@H]1Cc2c(ccc3c2O[C@@H]2COc4cc(OC)c(OC)cc4[C@@H]2C3=O)O1`: the T/C (in general, the ratio of treated to control) (dose: 3.13 mg/kg/injection, vehicle: saline) was 106 % of control; the T/C under setting [1] was 73 % of control; the T/C under setting [2] is 91 % of control; the T/C under setting [3] was 102 % of control.
Take `COc1cc2c[n+](C)c3c4cc5c(cc4ccc3c2cc1OC)OCO5`: the T/C is 105 % of control under setting [4], 34 % of control under setting [5] and 54 % of control under setting [6].
With `CN1CCN(CCCN2c3ccccc3Sc3ccc(C(F)(F)F)cc32)CC1`, the T/C was 63 % of control under setting [1], 78 % of control under setting [2] and 84 % of control under setting [3].
For the compound `O=CC(S)CO` (stereo not given), the T/C under setting [7] was 99 % of control.
For `Cc1c(CNc2ccc(C(=O)NC(CC(=O)O)C(=O)O)cc2)ccc2nc(N)nc(N)c12` (stereo not given), the T/C is, setting by setting: (dose: 6.0 mg/kg/injection, vehicle: saline with Tween-80) 63 % of control; (dose: 12.0 mg/kg/injection, vehicle: saline with Tween-80) 94 % of control; (dose: 24.0 mg/kg/injection, vehicle: saline with Tween-80) 81 % of control.
With `CO[C@H]1C[C@](C)(O)Cc2cc3c(c(O)c21)C(=O)c1c(O)cc2c(c1C3=O)O[C@@H]1O[C@@]2(C)[C@H](O)[C@@H](N(C)C)[C@@H]1O`, the T/C (dose: 6.25 mg/kg/injection, vehicle: other) was 53 % of control and the T/C (dose: 12.5 mg/kg/injection, vehicle: other) was 114 % of control.
Turning to `CSc1cc(=O)n2c3ccccc3c3ccnc1c32`, the T/C is, setting by setting: under setting [4], 92 % of control; under setting [5], 71 % of control; under setting [6], 93 % of control; (dose: 160.0 mg/kg/injection, vehicle: saline with Tween-80) 92 % of control.
With `Cc1c(N)nc([C@H](CC(N)=O)NC[C@H](N)C(N)=O)nc1C(=O)N[C@H](C(=O)N[C@H](C)[C@@H](O)[C@H](C)C(=O)N[C@H](C(=O)NCCc1nc(-c2nc(C(=O)NCCC[S+](C)C)cs2)cs1)[C@@H](C)O)C(OC1OC(CO)C(O)C(O)C1OC1OC(CO)C(O)C(OC(N)=O)C1O)c1cnc[nH]1` (stereo not given in full), the T/C (dose: 3.75 mg/kg/injection, vehicle: saline) is 45 % of control; the T/C (dose: 4.0 mg/kg/injection, vehicle: saline) was 70 % of control; the T/C (dose: 16.0 mg/kg/injection, vehicle: saline) is 49 % of control and 56 % of control and 63 % of control; the T/C (dose: 30.0 mg/kg/injection, vehicle: saline) was 33 % of control and 55 % of control; the T/C (dose: 60.0 mg/kg/injection, vehicle: saline) is 8 % of control and 21 % of control.
For `CCOC(=O)C1C2OC(=O)C(C(=O)C2CN(CCCl)CCCl)C1C1CC=C(CC2=CCC(C3C4C(=O)OC(C(CN(CCCl)CCCl)C4=O)C3C(=O)OCC)CC2)CC1` (stereo not given), the T/C was 58 % of control under setting [8]; 64 % of control under setting [9]; 55 % of control (dose: 100.0 mg/kg/injection, vehicle: Klucel (hydroxypropylcellulose) (HPC)).
Take `N=C(N)Sc1ccccn1`: under setting [10], the T/C is 182 % of control.
For `N/C(=N\O)c1cn(C2OC(CO)C(O)C2O)c2ncnc(N)c12` (stereo not given), the T/C under setting [11] is 70 % of control; the T/C (dose: 10.0 mg/kg/injection, vehicle: Klucel (hydroxypropylcellulose) (HPC)) is 68 % of control; the T/C (dose: 20.0 mg/kg/injection, vehicle: Klucel (hydroxypropylcellulose) (HPC)) is 62 % of control.
`O=c1[nH]c2c(ccc3cnccc32)c2c1CCC2`: the T/C runs as follows: (dose: 12.5 mg/kg/injection, vehicle: suspension in saline) 35 % of control; (dose: 25.0 mg/kg/injection, vehicle: suspension in saline) 70 % of control; under setting [12], 61 % of control.
For `NC(Cc1ccc(N(CCCl)CCCl)cc1)C(=O)O` (stereo not given), the T/C under setting [11] is 66 % of control.
Consider `CNC(=O)ON(C(C)=O)C(=O)NC`, for which the T/C is, setting by setting: under setting [2], 94 % of control; under setting [3], 103 % of control; under setting [10], 71 % of control; (dose: 100.0 mg/kg/injection, vehicle: saline) 60 % of control.
In the case of `CC(C)=CCNc1ncnc2c1ncn2C1OC(CO)C(O)C1O` (stereo not given), the T/C under setting [7] is 150 % of control.
Regarding `CNC=O`, the T/C (dose: 200.0 mg/kg/injection, vehicle: saline) is 64 % of control and 82 % of control and 86 % of control; the T/C under setting [7] is 56 % of control and 67 % of control; the T/C (dose: 400.0 mg/kg/injection, vehicle: saline) was 38 % of control and 41 % of control and 49 % of control; the T/C under setting [13] was 37 % of control and 57 % of control; the T/C (dose: 800.0 mg/kg/injection, vehicle: saline) was 12 % of control and 23 % of control; the T/C under setting [14] is 25 % of control and 30 % of control.
Consider `CC(=O)OCC1OC(n2cc(CBr)nn2)C(OC(C)=O)C(OC(C)=O)C1OC(C)=O` (stereo not given), for which the T/C (dose: 25.0 mg/kg/injection, vehicle: saline with Tween-80) is 169 % of control; the T/C (dose: 50.0 mg/kg/injection, vehicle: saline with Tween-80) is 61 % of control; the T/C under setting [15] is 107 % of control; the T/C under setting [16] was 110 % of control.
In the case of `CN(C)N=Nc1ccccc1`, the T/C (dose: 12.5 mg/kg/injection, vehicle: Klucel (hydroxypropylcellulose) (HPC)) is 94 % of control; the T/C under setting [8] is 61 % of control and 79 % of control.
For the compound `ClCC[N+]12CC[N+](CCCl)(CC1)C2`, the T/C runs as follows: (dose: 50.0 mg/kg/injection, vehicle: water) 81 % of control; under setting [15], 103 % of control; (dose: 100.0 mg/kg/injection, vehicle: water) 106 % of control; under setting [16], 72 % of control; (dose: 200.0 mg/kg/injection, vehicle: water) 59 % of control; (dose: 400.0 mg/kg/injection, vehicle: saline with Tween-80) 74 % of control. Further, where the note is “dose: 400.0 mg/kg/injection, vehicle: water”, the T/C is 48 % of control.
Consider `Oc1ccc(O)cc1`, for which the T/C under setting [10] was 201 % of control.
Regarding `O=C(NO)c1ccccc1`, the T/C reads like this: under setting [17], 95 % of control; under setting [7], 68 % of control and 84 % of control; under setting [13], 55 % of control and 80 % of control; under setting [14], 85 % of control.
As for `COc1cccc2c1C(=O)c1c(O)c3c(c(O)c1C2=O)C[C@@](O)(C(=O)CO)C[C@@H]3OC1CC(N)CC(C)O1` (stereo not given in full), the T/C is, setting by setting: (dose: 0.4 mg/kg/injection, vehicle: water) 67 % of control; (dose: 0.79 mg/kg/injection, vehicle: water) 109 % of control; (dose: 1.57 mg/kg/injection, vehicle: water) 99 % of control; (dose: 3.13 mg/kg/injection, vehicle: water) 90 % of control.
For the compound `O=C/C(Cl)=C(/Cl)C(=O)O`, the T/C was 112 % of control (dose: 3.13 mg/kg/injection, vehicle: saline with Tween-80); 84 % of control (dose: 6.25 mg/kg/injection, vehicle: saline with Tween-80); 71 % of control (dose: 12.5 mg/kg/injection, vehicle: saline with Tween-80).
For `CCCC(=O)OCc1cc(=O)n(C)c2c3c4c(cc12)c(C)cc(=O)n4CO3`, under setting [9], the T/C was 116 % of control.
As for `CC(CN1CC(=O)NC(=O)C1)N1CC(=O)NC(=O)C1` (stereo not given), the T/C under setting [12] is 70 % of control and the T/C under setting [17] is 53 % of control.
